According to patent US20030180957A1, “Target and method” (Sense Proteomic Limited, priority 2001, published 2003):

Biological target: Neutravidin (Gallus gallus, UniProt P02701)
Assay: surface capture of BSA-biotin on Neutravidin coated MALDI target, competition by free biotin
Assay type: binding
Conditions: MALDI target coated with PLL-PEG-biotin and Neutravidin; MALDI mass spectrum readout
Source text: The specificity of the surface capture was confirmed with the following experiments. BSA-Biotin was deposited on the MALDI target without Neutravidin or without the Biotin layer. BSA-Biotin was not detected in either case. Furthermore, binding of BSA-biotin to the Neutravidin coated surface is inhibited by the presence of free biotin. The database search results for BSA-biotin are presented in the appendix A.
MALDI targets are cleaned before use with acetone, acetonitrile, double distilled water and dried under nitrogen. Each position on the MALDI target is coated with 500 nanoliter 1%PLL-PEG-2%Biotin solution dissolved in desalting buffer. The target is then placed in a humid chamber for one hour at room temperature. Unbound PLL-PEG is rinsed with […] washing buffer followed by two washes with […] washing buffer. The target surface is dried under nitrogen. The PLL-PEG coating is then overlaid with 500 nanoliter of 0.5 mg/ml Neutravidin at each position of the array, incubated for one hour at RT in a humid chamber, rinsed with washing buffer, washed twice with […] washing buffer and dried under nitrogen. THE MALDI target is now ready to be used as a highly specific affinity capture surface. […]

Neutravidin, sequence (P02701 25-152): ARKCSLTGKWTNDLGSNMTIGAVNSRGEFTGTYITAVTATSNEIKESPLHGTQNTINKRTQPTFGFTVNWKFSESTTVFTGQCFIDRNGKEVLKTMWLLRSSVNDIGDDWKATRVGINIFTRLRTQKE

Question: Which “binding of BSA-biotin to the Neutravidin coated surface in the presence of free biotin” value does the source give for `O=C(O)CCCC[C@@H]1SC[C@@H]2NC(=O)N[C@@H]21` [biotin] here?
Answer: Its value is “inhibited”.
